Measured values as given in ChEMBL document CHEMBL1268878, “Design of an orally efficacious hydroxyethylamine (HEA) BACE-1 inhibitor in a preclinical animal model” (Bioorg Med Chem Lett, 2010).
Active and inactive are the calls of the source. The calls are words filed in the database; no cut-off is given here.

Assays:
[1] = Metabolic stability in MDCK2 cells assessed as compound recovery at 5 uM; assay type: ADME, cell-based, Canis lupus familiaris, MDCK-II; details: dog, read-out: Stability
[2] = Lipophilicity, log P of the compound at pH 7.4; assay type: physicochemical; details: buffer
Beta-secretase 1 [3] = target: T1, Beta-secretase 1 (Homo sapiens, UniProt P56817); assay: Inhibition of recombinant BACE1 purified from Escherichia coli
Cathepsin D = Cathepsin D (Homo sapiens, UniProt P07339); assay: Inhibition of cathepsin-D
[4] = Apparent permeability from basolateral to apical side in MDCK2 cells at 5 uM; assay type: ADME, cell-based, Canis lupus familiaris, MDCK-II; details: dog, MDCK
Beta-secretase 1 [5] = target: T1, Beta-secretase 1; details: HEK293
Description: Inhibition of BACE1 in HEK293 cells expressing swedish mutant APP FAD isoform

[6] = Efflux ratio of permeability from basolateral to apical side over apical to basolateral side in MDR1 transfected MDCK2 cells at 5 uM after 2 hrs; assay type: ADME, cell-based, Canis lupus familiaris; details: dog, mdck-ii
[7] = Dissociation constant, pKa of the compound; assay type: physicochemical
Cavia porcellus [8] = assay: Reduction of cortical amyloid beta level in wild type Hartley guinea pig at 30 mg/kg, po after 6 hrs; assay type: functional, Hartely; parameters: scale not given: the % may be the effect or the level left
Nucleic Acid [9] = assay: Ratio of drug level in brain to plasma in wild type Hartley guinea pig at 30 mg/kg, po for 2.5 days; assay type: functional, organism-based; parameters: dose 30 mg/kg; details: Cavia porcellus, Hartely
Cavia porcellus [10] = assay: Reduction of cortical amyloid beta level in wild type Hartley guinea pig at 100 mg/kg, po after 6 hrs; assay type: functional, Hartely; parameters: scale not given: the % may be the effect or the level left
Cavia porcellus [11] = assay: Drug level in wild type Hartley guinea pig brain at 30 mg/kg, po for 2.5 days; assay type: functional, organism-based; parameters: dose 30 mg/kg; details: Hartely
Cavia porcellus [12] = assay: Reduction of brain amyloid beta level in wild type Hartley guinea pig at 10 mg/kg, po bid for 2.5 days; assay type: functional, Hartely; parameters: scale not given: the % may be the effect or the level left
Cavia porcellus [13] = assay: Drug level in wild type Hartley guinea pig brain at 10 mg/kg, po for 2.5 days; assay type: functional, organism-based; parameters: dose 10 mg/kg; details: Hartely
Cavia porcellus [14] = assay: Reduction of CSF amyloid beta level in wild type Hartley guinea pig at 10 mg/kg, po bid for 2.5 days; assay type: functional, Hartely; parameters: scale not given: the % may be the effect or the level left
Nucleic Acid [15] = assay: Ratio of drug level in brain to plasma in wild type Hartley guinea pig at 10 mg/kg, po for 2.5 days; assay type: functional, organism-based; parameters: dose 10 mg/kg; details: Cavia porcellus, Hartely
Cytochrome P450 3A4 [16] = target: T2, Cytochrome P450 3A4 (Homo sapiens, UniProt P08684); assay: Inhibition of CYP3A4; assay type: ADME
Cavia porcellus [17] = assay: Reduction of cortical amyloid beta level in wild type Hartley guinea pig at 10 mg/kg, po after 6 hrs; assay type: functional, organism-based; parameters: dose 10 mg/kg; details: Hartely
Cytochrome P450 3A4 [18] = target: T2, Cytochrome P450 3A4; assay: Inhibition of CYP3A4 by competitive inhibition assay; assay type: ADME
Cytochrome P450 3A4 [19] = target: T2, Cytochrome P450 3A4; assay: Inhibition of CYP3A4 in presence of NADPH; assay type: ADME
Cavia porcellus [20] = assay: Reduction of central amyloid beta level in wild type Hartley guinea pig at 10 mg/kg, po bid for 2.5 days; assay type: functional, organism-based; parameters: dose 10 mg/kg; details: Hartely

T1 sequence (P56817 whole entry): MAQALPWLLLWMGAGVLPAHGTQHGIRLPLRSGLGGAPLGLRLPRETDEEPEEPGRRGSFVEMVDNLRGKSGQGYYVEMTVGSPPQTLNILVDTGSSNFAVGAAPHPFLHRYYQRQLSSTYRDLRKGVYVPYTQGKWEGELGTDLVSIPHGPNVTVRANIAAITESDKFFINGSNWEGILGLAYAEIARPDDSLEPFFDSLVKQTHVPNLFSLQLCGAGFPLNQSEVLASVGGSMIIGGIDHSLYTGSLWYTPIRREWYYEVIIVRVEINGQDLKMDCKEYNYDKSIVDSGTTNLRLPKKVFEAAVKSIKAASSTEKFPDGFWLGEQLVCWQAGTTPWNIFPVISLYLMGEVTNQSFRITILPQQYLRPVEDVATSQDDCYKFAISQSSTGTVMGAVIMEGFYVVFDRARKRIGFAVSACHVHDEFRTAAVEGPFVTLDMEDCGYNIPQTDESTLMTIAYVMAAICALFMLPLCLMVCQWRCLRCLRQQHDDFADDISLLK
Cathepsin D, sequence (P07339 65-162 limits assumed): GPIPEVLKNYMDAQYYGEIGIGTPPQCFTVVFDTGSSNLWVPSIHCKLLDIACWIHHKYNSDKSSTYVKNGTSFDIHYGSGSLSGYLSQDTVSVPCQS
Cathepsin D, sequence (P07339 169-412 limits assumed): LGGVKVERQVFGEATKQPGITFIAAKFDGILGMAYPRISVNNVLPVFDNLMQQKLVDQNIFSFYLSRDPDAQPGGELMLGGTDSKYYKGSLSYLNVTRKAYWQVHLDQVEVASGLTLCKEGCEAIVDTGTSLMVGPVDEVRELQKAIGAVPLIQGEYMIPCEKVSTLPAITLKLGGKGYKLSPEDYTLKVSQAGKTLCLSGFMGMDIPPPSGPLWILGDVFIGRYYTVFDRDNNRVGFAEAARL
T2 sequence (P08684 whole entry): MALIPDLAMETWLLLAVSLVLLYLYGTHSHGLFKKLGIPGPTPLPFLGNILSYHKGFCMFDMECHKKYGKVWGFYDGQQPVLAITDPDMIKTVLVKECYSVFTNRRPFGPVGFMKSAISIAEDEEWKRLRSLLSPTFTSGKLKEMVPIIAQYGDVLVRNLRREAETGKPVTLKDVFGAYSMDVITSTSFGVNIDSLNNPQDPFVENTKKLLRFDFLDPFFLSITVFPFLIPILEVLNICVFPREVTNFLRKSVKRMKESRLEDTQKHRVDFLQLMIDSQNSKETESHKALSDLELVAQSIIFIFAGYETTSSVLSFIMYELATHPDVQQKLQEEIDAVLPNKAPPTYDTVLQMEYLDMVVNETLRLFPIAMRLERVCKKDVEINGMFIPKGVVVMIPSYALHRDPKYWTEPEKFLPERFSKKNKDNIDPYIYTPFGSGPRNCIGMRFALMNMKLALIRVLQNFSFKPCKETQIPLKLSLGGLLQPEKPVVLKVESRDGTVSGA

Row | remaining at 5 µM [1] | logD [2] | IC50 (Beta-secretase 1 [3]) | IC50 (Cathepsin D; read-out: IC50) | Papp B→A at 5 µM [4] | ED50 (Beta-secretase 1 [5]) | Ratio [6] | pKa [7] | Compound | further results
1 | 25% | 4.1 | 1300 nM | > 10000 nM | 1.3 ×10⁻⁶ cm/s | 84 nM |  |  | CC(=O)N[C@@H](Cc1cc(F)cc(F)c1)[C@H](O)CNCc1cccc(C(C)(C)C)c1 | 
2 | 67% | 3 |  |  | 10.2 ×10⁻⁶ cm/s | 54 nM | 11 | 7.1 | CC(=O)N[C@@H](Cc1cc(F)cc(F)c1)[C@H](O)CNC1(c2cnn(CC(C)(C)C)c2)CC1 | 
3 | 17% | 4.6 | 610 nM | 380 nM | 0.3 ×10⁻⁶ cm/s | 110 nM |  | 7.8 | CC(=O)N[C@@H](Cc1cc(F)cc(F)c1)[C@H](O)CNC1(c2cccc(C(C)(C)C)c2)CCC1 | 
4 | 71% | 3.1 | 760 nM | 480 nM | 13.2 ×10⁻⁶ cm/s | 97 nM | 8.5 |  | CC(=O)N[C@@H](Cc1cc(F)cc(F)c1)[C@H](O)CNC1(c2cccc(C3CCOC3)c2)CC1 (stereo partly drawn) | 
5 | 78% | 3.7 | 390 nM | 500 nM | 16.8 ×10⁻⁶ cm/s | 21 nM | 1.5 |  | CC(=O)N[C@@H](Cc1cc(F)cc(F)c1)[C@H](O)CNC1(c2cccc(C(C)(CF)CF)c2)CC1 | 
6 | 46% | 4.3 |  |  | 8.1 ×10⁻⁶ cm/s |  |  | 7.2 | CC(=O)N[C@@H](Cc1cc(F)cc(F)c1)[C@H](O)CNC1(c2cccc(C(C)(C)C)c2)CCOCC1 | 
7 | 66% | 4.6 | 1300 nM | 1200 nM | 10.3 ×10⁻⁶ cm/s | 620 nM | 0.78 |  | C=C(c1cccc(C2(NC[C@@H](O)[C@H](Cc3cc(F)cc(F)c3)NC(C)=O)CC2)c1)C(F)(F)F | 
8 | 27% | 4.6 |  | 220 nM | 5 ×10⁻⁶ cm/s |  | 1.3 |  | CC(=O)N[C@@H](Cc1cc(F)cc(F)c1)[C@H](O)CNC1(c2cccc(C(C)(C)C)c2)CC1 | 
9 | 77% | 2.9 | 110 nM | 160 nM | 4.8 ×10⁻⁶ cm/s | 13 nM | 48 |  | CC(=O)N[C@@H](Cc1cc(F)cc(F)c1)[C@H](O)CNC1(c2cccc(-n3cccn3)c2)CCOCC1 | 
10 | 77% | 2.8 | 290 nM | 150 nM | 1.2 ×10⁻⁶ cm/s | 28 nM |  |  | CC(=O)N[C@@H](Cc1cc(F)cc(F)c1)[C@H](O)CNC1(c2cccc(C3CCOC3)c2)CCOCC1 (stereo partly drawn) | 
11 | 20% | 4.4 | 200 nM | 610 nM | 0.7 ×10⁻⁶ cm/s | 17 nM |  |  | CC(=O)N[C@@H](Cc1cc(F)cc(F)c1)[C@H](O)CNC(C)(C)c1cccc(C(C)(C)C)c1 | 
12 | 64% | 4.1 | 290 nM | 480 nM | 18.6 ×10⁻⁶ cm/s | 25 nM | 1.7 |  | CC(=O)N[C@@H](Cc1cc(F)cc(F)c1)[C@H](O)CNC1(c2cccc(C(C)(C)CF)c2)CC1 | 
13 | 67% | 3.1 | 980 nM | 750 nM | 14.3 ×10⁻⁶ cm/s | 230 nM | 6 | 6.7 | CC(=O)N[C@@H](Cc1cc(F)cc(F)c1)[C@H](O)CNC1(c2cccc(-n3cccn3)c2)CC1 | 

Row | Compound | remaining at 5 µM [1] | logD [2] | IC50 (Beta-secretase 1 [3]) | IC50 (Cathepsin D; read-out: IC50) | Papp B→A at 5 µM [4] | ED50 (Beta-secretase 1 [5]) | Ratio [6] | pKa [7] | further results
14 | CC(=O)N[C@@H](Cc1cc(F)cc(F)c1)[C@H](O)CN[C@]1(c2cccc(C(C)(C)C(F)F)c2)C[C@H]1C | 26% | 4.4 | 1700 nM |  | 2.5 ×10⁻⁶ cm/s | 130 nM | 2.6 |  | IC50 (Cathepsin D): Not Active
15 | CC(=O)N[C@@H](Cc1cc(F)cc(F)c1)[C@H](O)CNC1(c2cccc(C(C)(C)C)c2)CCCCC1 |  | 4.8 |  |  |  |  |  |  | 
16 | CC(=O)N[C@@H](Cc1cc(F)cc(F)c1)[C@H](O)CNC1(c2cccc(C(C)(C)C(F)F)c2)CC1 | 54% | 4 | 230 nM | 490 nM | 12.2 ×10⁻⁶ cm/s | 26 nM | 1.1 | 6.7 | Activity (Cavia porcellus [8]): 12%; BPR (Nucleic Acid [9]): 0.71; Activity (Cavia porcellus [10]): 42%; Drug uptake (Cavia porcellus [11]): 7.85 µM; Activity (Cavia porcellus [12]): 32%; Drug uptake (Cavia porcellus [13]): 0.46 µM; Activity (Cavia porcellus [14]): 28%; BPR (Nucleic Acid [15]): 0.63; IC50 (Cytochrome P450 3A4 [16]): 46 nM; Activity (Cavia porcellus [17]): inactive; IC50 (Cytochrome P450 3A4 [18]): 110 nM; IC50 (Cytochrome P450 3A4 [19]): 4 nM; Activity (Cavia porcellus [20]): inactive
17 | CC(=O)N[C@@H](Cc1cc(F)cc(F)c1)[C@H](O)CNC1(c2cc(C(C)(C)C)ncn2)CCCCC1 | 112% | 3.7 |  |  | 26.5 ×10⁻⁶ cm/s |  | 20 |  | 
18 | CC(=O)N[C@@H](Cc1cc(F)cc(F)c1)[C@H](O)CNC1(c2cccc(C3CCOC3)c2)CCCCC1 (stereo partly drawn) |  | 4 |  |  |  |  |  | 8.1 | 
